Measured values taken from PubChem BioAssay AID1918991 (Molecular Pharmacology Branch, DTP, NCI, 2023).
Several values for one entry are separate records, joined by “and”; a condition that tells them apart may be missing. Equal entries are not always repeated.

Test system: 186277-243-T-J2-PDC complex spheroid growth
Experiment: Anticancer human tumor 186277-243-T-J2-PDC patient-derived colon adenocarcinoma cell line growth inhibition [AhR]
Conditions: for viability, T/C: stronger effect = lower value
Outline: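 Complex tumor spheroids co-cultured with HUVEC and human MSC stroma; AhR antagonists tested in combination with standard-of-care and investigational agents. Top concentration at or near clinical Cmax (else 10 microM), half-log dilutions; growth expressed as percent test/control.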

[1] = curve of first compound, second compound 0.1 µM
[2] = curve of first compound, second compound 0.316 µM
[3] = curve of first compound, second compound 1 µM
[4] = curve of first compound, second compound 3.16 µM
[5] = curve of first compound, second compound 10 µM
[6] = second compound 0.1 µM, first compound 0.0316 µM
[7] = second compound 0.1 µM, first compound 0.1 µM
[8] = second compound 0.1 µM, first compound 0.316 µM
[9] = second compound 0.1 µM, first compound 1 µM
[10] = second compound 0.1 µM, first compound 3.16 µM
[11] = second compound 0.1 µM, first compound 10 µM
[12] = second compound 0.316 µM, first compound 0.0316 µM
[13] = second compound 0.316 µM, first compound 0.1 µM
[14] = second compound 0.316 µM, first compound 0.316 µM
[15] = second compound 0.316 µM, first compound 1 µM
[16] = second compound 0.316 µM, first compound 3.16 µM
[17] = second compound 0.316 µM, first compound 10 µM
[18] = second compound 1 µM, first compound 0.0316 µM
[19] = second compound 1 µM, first compound 0.1 µM
[20] = second compound 1 µM, first compound 0.316 µM
[21] = second compound 1 µM, first compound 1 µM
[22] = second compound 1 µM, first compound 3.16 µM
[23] = second compound 1 µM, first compound 10 µM
[24] = second compound 3.16 µM, first compound 0.0316 µM
[25] = second compound 3.16 µM, first compound 0.1 µM
[26] = second compound 3.16 µM, first compound 0.316 µM
[27] = second compound 3.16 µM, first compound 1 µM
[28] = second compound 3.16 µM, first compound 3.16 µM
[29] = second compound 3.16 µM, first compound 10 µM
[30] = second compound 10 µM, first compound 0.0316 µM
[31] = second compound 10 µM, first compound 0.1 µM
[32] = second compound 10 µM, first compound 0.316 µM
[33] = second compound 10 µM, first compound 1 µM
[34] = second compound 10 µM, first compound 3.16 µM
[35] = second compound 10 µM, first compound 10 µM
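Note: spheroids exposed to compounds for seven days before the viability read.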
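Throughout, for viability, T/C: luminescent signal used as a stand-in for viable cell amount; 100% = DMSO vehicle control wells.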

Question: For `Nc1ccn(C2OC(CO)C(O)C2(F)F)c(=O)n1` (configuration not stated) + CC(CO)NC(=O)c1cc(-c2ccc(Cl)cc2)nn(-c2cnn(C)c2)c1=O, which IC50 [1] is on record?
Answer: < 31.6 nM

Question: What about the IC50 [2] of the same compound?
Answer: < 31.6 nM

Question: What about the IC50 [3] of the same compound?
Answer: < 31.6 nM

Question: And the IC50 [4]?
Answer: < 31.6 nM

Question: And the IC50 [5]?
Answer: < 31.6 nM

Question: What about the viability, T/C [6] of the same compound?
Answer: 5.01%

Question: And the viability, T/C [7]?
Answer: 4.63%

Question: What about the viability, T/C [8] of the same compound?
Answer: 4.51%

Question: What about the viability, T/C [9] of the same compound?
Answer: 3.71%

Question: And the viability, T/C [10]?
Answer: 4.16%

Question: What about the viability, T/C [11] of the same compound?
Answer: 4.38%

Question: And the viability, T/C [12]?
Answer: 4.41%

Question: What about the viability, T/C [13] of the same compound?
Answer: 4.36%

Question: What about the viability, T/C [14] of the same compound?
Answer: 4.44%

Question: What about the viability, T/C [15] of the same compound?
Answer: 4.03%

Question: And the viability, T/C [16]?
Answer: 4.3%

Question: And the viability, T/C [17]?
Answer: 4.3%

Question: And the viability, T/C [18]?
Answer: 5.04%

Question: And the viability, T/C [19]?
Answer: 4.97%

Question: What about the viability, T/C [20] of the same compound?
Answer: 4.99%

Question: What about the viability, T/C [21] of the same compound?
Answer: 4.1%

Question: What about the viability, T/C [22] of the same compound?
Answer: 5.44%

Question: What about the viability, T/C [23] of the same compound?
Answer: 4.54%

Question: And the viability, T/C [24]?
Answer: 5.3%

Question: What about the viability, T/C [25] of the same compound?
Answer: 4.96%

Question: And the viability, T/C [26]?
Answer: 5.78%

Question: What about the viability, T/C [27] of the same compound?
Answer: 5.41%

Question: What about the viability, T/C [28] of the same compound?
Answer: 5.04%

Question: And the viability, T/C [29]?
Answer: 4.36%

Question: What about the viability, T/C [30] of the same compound?
Answer: 5.62%

Question: What about the viability, T/C [31] of the same compound?
Answer: 5.79%

Question: And the viability, T/C [32]?
Answer: 5.42%

Question: And the viability, T/C [33]?
Answer: 5.48%

Question: And the viability, T/C [34]?
Answer: 5.6%

Question: What about the viability, T/C [35] of the same compound?
Answer: 4.96%

Question: How did the IC50 [1] turn out when `CCN(c1cc(-c2ccc(CN3CCOCC3)cc2)cc(C(=O)NCc2c(C)cc(C)[nH]c2=O)c1C)C1CCOCC1` + Cc1ccccc1N=Nc1ccc(NC(=O)c2ccnn2C)c(C)c1 was run?
Answer: > 3000 nM

Question: What about the IC50 [2] of the same compound?
Answer: > 3000 nM

Question: What about the IC50 [3] of the same compound?
Answer: > 3000 nM

Question: What about the IC50 [4] of the same compound?
Answer: > 3000 nM

Question: What about the IC50 [5] of the same compound?
Answer: > 3000 nM

Question: And the viability, T/C (second compound 0.1 µM, first compound 0.00949 µM)?
Answer: 105%

Question: What about the viability, T/C (second compound 0.1 µM, first compound 0.03 µM) of the same compound?
Answer: 118%

Question: And the viability, T/C (second compound 0.1 µM, first compound 0.0949 µM)?
Answer: 112%

Question: What about the viability, T/C (second compound 0.1 µM, first compound 0.3 µM) of the same compound?
Answer: 108%

Question: And the viability, T/C (second compound 0.1 µM, first compound 0.949 µM)?
Answer: 102%

Question: And the viability, T/C (second compound 0.1 µM, first compound 3 µM)?
Answer: 102%

Question: What about the viability, T/C (second compound 0.316 µM, first compound 0.00949 µM) of the same compound?
Answer: 95.7%

Question: And the viability, T/C (second compound 0.316 µM, first compound 0.03 µM)?
Answer: 109%

Question: What about the viability, T/C (second compound 0.316 µM, first compound 0.0949 µM) of the same compound?
Answer: 100%

Question: And the viability, T/C (second compound 0.316 µM, first compound 0.3 µM)?
Answer: 105%

Question: What about the viability, T/C (second compound 0.316 µM, first compound 0.949 µM) of the same compound?
Answer: 103%

Question: And the viability, T/C (second compound 0.316 µM, first compound 3 µM)?
Answer: 112%

Question: And the viability, T/C (second compound 1 µM, first compound 0.00949 µM)?
Answer: 104%

Question: What about the viability, T/C (second compound 1 µM, first compound 0.03 µM) of the same compound?
Answer: 102%

Question: And the viability, T/C (second compound 1 µM, first compound 0.0949 µM)?
Answer: 102%

Question: What about the viability, T/C (second compound 1 µM, first compound 0.3 µM) of the same compound?
Answer: 94.5%

Question: And the viability, T/C (second compound 1 µM, first compound 0.949 µM)?
Answer: 100%

Question: And the viability, T/C (second compound 1 µM, first compound 3 µM)?
Answer: 112%

Question: What about the viability, T/C (second compound 3.16 µM, first compound 0.00949 µM) of the same compound?
Answer: 91%

Question: And the viability, T/C (second compound 3.16 µM, first compound 0.03 µM)?
Answer: 94.7%

Question: What about the viability, T/C (second compound 3.16 µM, first compound 0.0949 µM) of the same compound?
Answer: 99.5%

Question: And the viability, T/C (second compound 3.16 µM, first compound 0.3 µM)?
Answer: 94%

Question: And the viability, T/C (second compound 3.16 µM, first compound 0.949 µM)?
Answer: 107%

Question: And the viability, T/C (second compound 3.16 µM, first compound 3 µM)?
Answer: 104%

Question: What about the viability, T/C (second compound 10 µM, first compound 0.00949 µM) of the same compound?
Answer: 89.9%

Question: What about the viability, T/C (second compound 10 µM, first compound 0.03 µM) of the same compound?
Answer: 91.2%

Question: What about the viability, T/C (second compound 10 µM, first compound 0.0949 µM) of the same compound?
Answer: 86.3%

Question: And the viability, T/C (second compound 10 µM, first compound 0.3 µM)?
Answer: 79.8%

Question: What about the viability, T/C (second compound 10 µM, first compound 0.949 µM) of the same compound?
Answer: 84.2%

Question: What about the viability, T/C (second compound 10 µM, first compound 3 µM) of the same compound?
Answer: 93.2%

Question: With `COc1cccc2c1C(=O)c1c(O)c3c(c(O)c1C2=O)CC(O)(C(=O)CO)CC3OC1CC(N)C(O)C(C)O1` (configuration not stated) + CC(CO)NC(=O)c1cc(-c2ccc(Cl)cc2)nn(-c2cnn(C)c2)c1=O as the compound, how does the IC50 [1] read?
Answer: < 31.6 nM

Question: What about the IC50 [2] of the same compound?
Answer: < 31.6 nM

Question: What about the IC50 [3] of the same compound?
Answer: < 31.6 nM

Question: What about the IC50 [4] of the same compound?
Answer: < 31.6 nM

Question: And the IC50 [5]?
Answer: < 31.6 nM

Question: What about the viability, T/C [6] of the same compound?
Answer: 39.3%

Question: What about the viability, T/C [7] of the same compound?
Answer: 28.8%

Question: And the viability, T/C [8]?
Answer: 7.36%

Question: What about the viability, T/C [9] of the same compound?
Answer: 0.1%

Question: What about the viability, T/C [10] of the same compound?
Answer: 0.08%

Question: What about the viability, T/C [11] of the same compound?
Answer: 0.32%

Question: And the viability, T/C [12]?
Answer: 38.3%

Question: And the viability, T/C [13]?
Answer: 27.1%

Question: And the viability, T/C [14]?
Answer: 7.61%

Question: And the viability, T/C [15]?
Answer: 0.08%

Question: What about the viability, T/C [16] of the same compound?
Answer: 0.06%

Question: And the viability, T/C [17]?
Answer: 0.6%

Question: What about the viability, T/C [18] of the same compound?
Answer: 37.9%

Question: And the viability, T/C [19]?
Answer: 29%

Question: What about the viability, T/C [20] of the same compound?
Answer: 8.06%

Question: And the viability, T/C [21]?
Answer: 0.09%

Question: What about the viability, T/C [22] of the same compound?
Answer: 0.37%

Question: And the viability, T/C [23]?
Answer: 0.22%

Question: What about the viability, T/C [24] of the same compound?
Answer: 33.9%

Question: What about the viability, T/C [25] of the same compound?
Answer: 27.5%

Question: And the viability, T/C [26]?
Answer: 7.26%

Question: And the viability, T/C [27]?
Answer: 0.08%

Question: And the viability, T/C [28]?
Answer: 0.09%

Question: What about the viability, T/C [29] of the same compound?
Answer: 0.64%

Question: And the viability, T/C [30]?
Answer: 28.2%

Question: And the viability, T/C [31]?
Answer: 24.3%

Question: And the viability, T/C [32]?
Answer: 4.49%

Question: What about the viability, T/C [33] of the same compound?
Answer: 0.2%

Question: What about the viability, T/C [34] of the same compound?
Answer: 0.17%

Question: What about the viability, T/C [35] of the same compound?
Answer: 0.32%

Question: Which viability, T/C (compound 0.0316 µM) does the source give for `COc1ccc([C@@H](O)c2cc(-c3ncnc4cc(N5CCOCC5)ccc34)c(F)cc2Cl)nn1` here?
Answer: 103% and 94.6% and 86.8%

Question: What about the viability, T/C (compound 0.1 µM) of the same compound?
Answer: 101% and 91.5% and 90.4%

Question: And the viability, T/C (compound 0.316 µM)?
Answer: 115% and 102% and 95%

Question: And the viability, T/C (compound 1 µM)?
Answer: 107% and 95.6% and 69.3%

Question: And the viability, T/C (compound 3.16 µM)?
Answer: 108% and 87.9% and 46.4%

Question: And the viability, T/C (compound 10 µM)?
Answer: 45.4% and 44.9% and 16.3%

Question: What about the IC50 (curve of compound) of the same compound?
Answer: 9190 nM and 8760 nM and 2560 nM
